Values after ≈ are worked out from the molar mass of the structure shown. Where two headings read alike, the source gives them in different places.

One assay relates to slime organisms. Description: Action against slime organisms (MIC in Allen's nutrient solution). Type of assay: cell-based. As to conditions: 336 h, about 10^6 germs/ml, 3 weeks at room temperature.
For another assay, the system named is Staphylococcus aureus. Description: Action against bacteria (MIC in broth agar). As to conditions: 28° C., 60 to 70% relative humidity, 2 weeks. It is filed as cell-based.
The subject of a further assay is Aspergillus niger. Description: MIC against fungi, beerwort/peptone agar. As to conditions: 28° C., 60 to 70% relative humidity, 2 weeks.
The subject of a further assay is Eschercihia coli. Description: Action against bacteria (MIC in broth agar). Type of assay: cell-based. Particulars: Escherichia coli, 28° C., 60 to 70% relative humidity, 2 weeks.
Another assay has as its system Sclerophoma pityophila. Description: MIC against fungi, beerwort/peptone agar. Particulars: 28° C., 60 to 70% relative humidity, 2 weeks.
Another assay concerns Chaetomium globosum. Description: MIC against fungi, beerwort/peptone agar. Particulars: 28° C., 60 to 70% relative humidity, 2 weeks.
For the next assay, the system named is Trichoderma viride. Description: MIC against fungi, beerwort/peptone agar.
Another assay concerns Penicillium glaucum. Description: MIC against fungi, beerwort/peptone agar. Particulars: 28° C., 60 to 70% relative humidity, 2 weeks.
The subject of a further assay is Coniophora puteana. Description: MIC against fungi, beerwort/peptone agar. Particulars: 28° C., 60 to 70% relative humidity, 2 weeks.
For another assay, the system named is Aureobasidium pullulans. Description: MIC against fungi, beerwort/peptone agar.
The next assay has as its system Polyporus versicolor. Kind of assay: MIC against fungi, beerwort/peptone agar.
Another assay has as its system Lentinus tigrinus. Kind of assay: MIC against fungi, beerwort/peptone agar. As to conditions: 28° C., 60 to 70% relative humidity, 2 weeks.
A further assay deals with Alternaria tenuis. Kind of assay: MIC against fungi, beerwort/peptone agar. As to conditions: 28° C., 60 to 70% relative humidity, 2 weeks.
Assay [1] relates to microbes (bacteria, yeasts and moulds) isolated from microbially decayed cooling lubricant use dilutions. Description: Testing as a preservative for cooling lubricants. Particulars: 1% active compound in mineral oil cooling lubricant; 5% strength use dilutions contaminated daily for 3 months. Here is the method:
1% of the active compound is added, as a preservative, to a cooling lubricant based on mineral oil. 5% strength use dilutions of the cooling lubricant are massively contaminated daily for 3 months with microbes (bacteria, yeasts and moulds) isolated from microbially decayed cooling lubricant use dilutions.

The mark [2] stands for this setting: 28° C., 60 to 70% relative humidity, 2 weeks.

Turning to `N#CC=C(Cl)SCCC#N` [Example 1, 1-chloro-2-cyanovinyl 2-cyano-ethyl sulphide], the MIC in the assay with slime organisms is 0.15 µg/mL (≈ 0.869 µM).

For the compound `N#CCCSC(Cl)=C(Cl)C#N` [Example 2, 1,2-dichloro-2-cyano-vinyl 2-cyano-ethyl sulphide], the MIC in the assay with Staphylococcus aureus (336 h, read-out: MIC) is 35 µg/mL (≈ 169 µM); in the assay with Aspergillus niger (336 h), below 20 µg/mL; in the assay with Eschercihia coli (336 h, read-out: MIC), 200 µg/mL (≈ 966 µM); in the assay on Sclerophoma pityophila (Sydowia polyspora, 336 h), 20 µg/mL (≈ 96.6 µM); with Chaetomium globosum (336 h), below 20 µg/mL; with slime organisms it was 2 µg/mL (≈ 9.66 µM).

With `N#CC(Cl)=CSC(Cl)=C(Cl)C#N` [Example 5, 1,2-dichloro-2-cyano-vinyl 2-chloro-2-cyano-vinyl sulphide], the MIC is 10 µg/mL (≈ 41.8 µM) in the assay with Trichoderma viride (336 h); 10 µg/mL (≈ 41.8 µM) with Staphylococcus aureus (336 h, read-out: MIC); 1 µg/mL (≈ 4.18 µM) in the assay on Penicillium glaucum (Penicillium, 336 h); 2 µg/mL (≈ 8.35 µM) against Aspergillus niger (336 h); 20 µg/mL (≈ 83.5 µM) in the assay on Eschercihia coli (336 h, read-out: MIC); below 0.1 mg/L in the assay with Coniophora puteana (336 h). Also, the MIC in the assay with Sclerophoma pityophila (Sydowia polyspora, 336 h) is 0.5 µg/mL (≈ 2.09 µM); with Aureobasidium pullulans (336 h), 5 µg/mL (≈ 20.9 µM); with Polyporus versicolor (Trametes versicolor, 336 h) it was 1 µg/mL (≈ 4.18 µM); with Lentinus tigrinus (336 h) it was 0.5 µg/mL (≈ 2.09 µM); with Alternaria tenuis (Alternaria alternata, 336 h) it was 20 mg/L (≈ 83.5 µM); with Chaetomium globosum (336 h) it was 2 µg/mL (≈ 8.35 µM). The minimum inhibitory concentration (MIC) against slime organisms is 0.35 µg/mL (≈ 1.46 µM). Also, the “state of the use dilutions at the end of the testing period” value in assay [1] is listed as “free from germs”.

Regarding `N#CC(Cl)=C(Cl)SC(Cl)=C(Cl)C#N` [Example 8, bis-(1,2-dichloro-2-cyano-vinyl) sulphide], the MIC against Trichoderma viride (336 h) is 10 µg/mL (≈ 36.5 µM); with Staphylococcus aureus (336 h, read-out: MIC), below 20 µg/mL; against Penicillium glaucum it was 1 µg/mL (≈ 3.65 µM); in the assay with Aspergillus niger (336 h), 2 µg/mL (≈ 7.3 µM); with Eschercihia coli (336 h, read-out: MIC) it was 50 µg/mL (≈ 183 µM); against Coniophora puteana, below 0.1 mg/L. Further, the MIC turned out to be 0.5 µg/mL (≈ 1.83 µM) in the assay on Sclerophoma pityophila (Sydowia polyspora, 336 h); 1 µg/mL (≈ 3.65 µM) with Aureobasidium pullulans (336 h); 1 µg/mL (≈ 3.65 µM) in the assay on Polyporus versicolor (Trametes versicolor, 336 h); 0.5 µg/mL (≈ 1.83 µM) with Lentinus tigrinus (336 h); 2 mg/L (≈ 7.3 µM) against Alternaria tenuis; 2 µg/mL (≈ 7.3 µM) against Chaetomium globosum (336 h).

For `N#CC(Cl)=C(Cl)SC(Cl)=C(Cl)C#N` [Example 9, bis-(1,2-dichloro-2-cyano-vinyl) sulphide], the MIC worked out at 10 µg/mL (≈ 36.5 µM) against Trichoderma viride (setting [2]); 10 µg/mL (≈ 36.5 µM) against Staphylococcus aureus; 2.5 µg/mL (≈ 9.13 µM) with Penicillium glaucum; 2.5 µg/mL (≈ 9.13 µM) in the assay with Aspergillus niger; 25 µg/mL (≈ 91.3 µM) against Eschercihia coli; 0.5 mg/L (≈ 1.83 µM) against Coniophora puteana. For the same compound, the MIC in the assay with Sclerophoma pityophila amounted to 0.75 µg/mL (≈ 2.74 µM); in the assay on Aureobasidium pullulans (setting [2]), 1 µg/mL (≈ 3.65 µM); against Polyporus versicolor (Polyporus versicolor, 28° C., 60 to 70% relative humidity, 2 weeks), 1 µg/mL (≈ 3.65 µM); in the assay on Lentinus tigrinus, 1 µg/mL (≈ 3.65 µM); with Alternaria tenuis, 0.75 mg/L (≈ 2.74 µM); against Chaetomium globosum, 2.5 µg/mL (≈ 9.13 µM).

As to `N#CC(Cl)=CS(=O)(=O)c1ccccc1` [α-Chloro-β-phenylsulphonyl-acrylonitrile, α-Chloro-β-phenylsulphonyl acrylonitrile, reference compound], the MIC with Staphylococcus aureus (336 h, read-out: MIC) worked out at 500 µg/mL (≈ 2200 µM); in the assay on Penicillium glaucum (Penicillium, 336 h), 35 µg/mL (≈ 154 µM); with Aspergillus niger (336 h) it was 50 µg/mL (≈ 220 µM); in the assay on Eschercihia coli (336 h, read-out: MIC), 200 µg/mL (≈ 878 µM); with Chaetomium globosum (336 h) it was 50 µg/mL (≈ 220 µM).

These data come from patent publication US4647687A, “Halogenated sulphides, process for their preparation and their use in microbicidal agents” (Bayer Aktiengesellschaft, priority 1983, dated 1987).
